# Experimental data taken from patent publication US9889184B2 (priority 2008, dated 2018).
# How the values were obtained:
# [1] = tested on: Fov infection; conditions: transgenic cotton expressing NaD1 vs untransformed parent variety, field trials; cited from earlier work
# [2] = tested on: Fov; assay: Effect of metal ions on NaD1 activity against Fov; assay type: cell-based, Fusarium oxysporum f. sp. vasinfectum; conditions: NaD1 10 μM, growth of Fov
# Source text: (§1) Antifungal activity against Fusarium oxysporum f. sp. vasinfectum (Fov, Australian isolate VCG01111 isolated from cotton; from Wayne O'Neill, Farming Systems Institute, DPI, Queensland, Australia), Thielaviopsis basicola (gift from David Nehl, NSW DPI, Narrabri, Australia), Verticillium dahliae (from Helen McFadden, CSIRO Plant Industry, Black Mountain, Australia), Leptosphaeria maculans (from Barbara Howlett, University of Melbourne, Victoria, Australia) and Aspergillus nidulans (from Michael Hynes, University of Melbourne) was assessed essentially as described in Broekaert et al, 1990. Spores were isolated from sporulating cultures growing in either half-strength potato dextrose broth (PDB) (Fov and T. basicola), Czapeck-Dox Broth (V. dahliae) (Difco Laboratories) or 10% (v/v) clarified V8 medium (L. maculans and A. nidulans) by filtration through sterile muslin. Spore concentrations were determined using a hemocytometer and adjusted to 5×10^4 spores/mL in the appropriate growth medium. Spore suspensions (80 μL) were added to the wells of sterile 96-well flat-bottomed microtitre plates along with 20 μL of filter-sterilized (0.22 μm syringe filter; Millipore) NaD1, or water to give final protein concentrations of 0-10 μM. The plates were shaken briefly and placed in the dark at 25° C. without shaking until the optical density at 595 nm of the water control reached approximately 0.2 (24-72 h depending on growth rate). Hyphal growth was estimated by measuring the optical density at 595 nm using a microtitre plate reader (SpectraMax Pro M2; Molecular Devices). Each test was performed in quadruplicate.
# The activity of NaD1 against Fov was examined as described with varying concentrations of CaCl2 (0.1, 0.2, 0.5, 1.0 and 2.0 μM) or MgCl2 (1.0, 2.0, 10, 20 and 50 μM) present in the medium to determine the effects of divalent cations on NaD1 activity.
# [3] = tested on: Fov hyphae; assay: Detection of reactive oxygen species (DHR123 oxidation); assay type: cell-based, Fusarium oxysporum f. sp. vasinfectum
# Procedure: Fov hyphae were grown as described herein and incubated with 5 μg/mL dihydrorhodamine 123 (Sigma-Aldrich) for 2 h followed by extensive washing with growth medium. […] Fluorescence was then measured on a fluorimeter with excitation and emission wavelengths of 488 nm and 538 nm respectively or visualized by fluorescence microscopy. The experiment was repeated either in the presence of ascorbic acid (10 mM) or 2,2,6,6-tetramethylpiperidine-N-oxyl (TEMPO, 3 mM).
# [4] = tested on: Fov hyphae; assay: Uptake of FITC-labeled dextrans into NaD1-treated hyphae; assay type: cell-based, Fusarium oxysporum f. sp. vasinfectum
# Procedure: The uptake of FITC-labeled dextran following NaD1 treatment of fungal hyphae was also studied. Fov hyphae were grown as described above and incubated with NaD1 (final concentration 0.1, 2, 10 or 50 μM) or an equivalent volume of water for 2 h at RT with gentle agitation. Hyphae were washed twice for 10 min with half-strength PDB to remove excess NaD1 before FITC dextrans of either 4 kDa (FD-4, Sigma-Aldrich) or 10 kDa (FD-10, Sigma-Aldrich) were added to a final concentration of 1 μM. Hyphae were incubated for a further 30 min at RT and then washed twice with half strength PDB to remove excess dextrans. Fluorescence microscopy was used to visualize hyphae as described for SYTOX® green. A second assay was performed under the same conditions except the dextrans were added at the same time as NaD1.
# [5] = tested on: Leptosphaeria maculans; assay: Growth inhibition by NaD1 (microtitre OD595); assay type: cell-based
# Source text: as §1
# [6] = tested on: Aspergillus nidulans; assay: Growth inhibition by NaD1 (microtitre OD595); assay type: cell-based
# Source text: as §1
# [7] = tested on: Thielaviopsis basicola; assay: Growth inhibition by NaD1 (microtitre OD595); assay type: cell-based
# Source text: as §1
# [8] = tested on: Verticillium dahliae; assay: Growth inhibition by NaD1 (microtitre OD595); assay type: cell-based
# Source text: as §1
# [9] = tested on: Fusarium oxysporum f. sp. vasinfectum (Fov) hyphae; assay: Permeabilisation of Fov hyphae by defensins, SYTOX green (Example 10); assay type: cell-based; conditions: within 60 mins; followed over 2 h
# Procedure: Fov hyphae were grown in half-strength PDB (10 mL in a 50 mL tube) from a starting concentration of 5×10^4 spores/mL for 18 h at 25° C. with constant shaking. Samples (1 mL) were then removed and NaD1 (final concentration 2 μM), NaD1R&A (final concentration 2 μM) or an equivalent volume of water was added before incubation for 2 h at RT with gentle agitation. SYTOX® green (Invitrogen-Molecular Probes, Eugene, Oreg.) was added to a final concentration of 0.5 μM and the hyphae were allowed to stand for 10 min. Hyphae (20 μL) were then transferred to microscope slides (SuperFrost (Registered) Plus, Menzel-Glaser) and covered with glass coverslips for visualization of SYTOX® green uptake using an Olympus BX51 fluorescence microscope. SYTOX® green fluorescence was detected using an MWIB filter (excitation wavelength 460-490 nm). Images were captured using a SPOT RT 3CCD digital camera (Diagnostic Instruments) and processed using Adobe Photoshop. SYTOX® green uptake was quantitated by measuring fluorescence of hyphae in microtitre trays using a fluorimeter (SpectraMax M2; Molecular Devices) with excitation and emission wavelengths of 488 nm and 538 nm, respectively.
# The ability of defensins to permeabilise Fusarium oxysporum f. sp. vasinfectum (Fov) hyphae was assessed using a SYTOX green assay as described in the detailed description (NaD1 and membrane permeabilisation).
substance,measurement,setting,value
NaD1: plant defensin isolated from floral tissue of Nicotiana alata (SEQ ID NO:12) (RECKTESNTFPGICITKPPCRKACISEKFTDGHCSKILRRCLCTKPC; Nicotiana alata (NaD1)),protection from the pathological effects of Fov infection,[1],significantly protected
same,Ca2+ more antagonistic than Mg2+,[2],greater than 20 times
same,CaCl2 concentration giving complete inactivation of NaD1,[2],< 2 mM
same,MgCl2 concentration giving complete inactivation of NaD1,[2],50 mM
same,"ROS production, DHR123 fluorescence","[3]; NaD1 0.1, 2 and 10 μM or 10 μM NaD1R&A",concentration-dependent increase in fluorescence
same,DHR123 oxidation by NaD1 in the presence of ROS scavengers,[3]; ascorbic acid or TEMPO present,did not alter the level of fluorescence
same,entry of 10 kDa FITC-dextran (23 Å) into NaD1-treated hyphae,[4]; even at very high concentrations of NaD1,excluded
same,entry of 4 kDa FITC-dextran (14 Å) into NaD1-treated hyphae,[4]; same NaD1 concentration that led to SYTOX green uptake,entered hyphae
same,growth retarded,"[5]; 1 μM NaD1, L. maculans",50%
same,growth inhibited,"[5]; 5 μM NaD1, L. maculans",more than 80%
same,IC50,[5]; Leptosphaeria maculans,800 nM
same,growth inhibited,"[6]; 1 μM NaD1, A. nidulans",approximately 65%
same,growth inhibited,"[6]; 5 μM NaD1, A. nidulans",more than 80%
same,IC50,[6]; Aspergillus nidulans,800 nM
same,growth inhibited,"[7]; 1 μM NaD1, T. basicola",approximately 65%
same,growth inhibited,"[7]; 5 μM NaD1, T. basicola",more than 80%
same,IC50,[7]; Thielaviopsis basicola,800 nM
same,growth inhibited,"[8]; 1 μM NaD1, V. dahliae",approximately 65%
same,growth inhibited,"[8]; 5 μM NaD1, V. dahliae",more than 80%
same,IC50,[8]; Verticillium dahliae,750 nM
same,permeabilisation of Fov hyphae (SYTOX green),[9],efficiently permeabilise
